Each structure is given as a SMILES string.

What all share (format): cell-based, human
One experiment relates to MGC-803 cells. Kind of experiment: CCK-8 proliferation assay, MGC-803. As to conditions: for IC50: Homo sapiens, MGC-803, 48 h, CCK-8, mean ± SD. The protocol: (§1) All synthesized β-lactam-azide derivatives were evaluated for their antiproliferative activity against three cancer cell lines (MGC-803, MCF-7, A549) using CCK-8 proliferation assay. The well-known anticancer drug CA-4P was used as a control[36],[37].
(§2) MGC-803 cell line was obtained from the Chinese Academy of Sciences (Shanghai, China). MCF-7 and A549 were from the National Cell Center, China. MGC-803 cells were cultured in DMEM culture medium (DMEM, Biological Industries, Kibbutz Beit Haemek, Israel). A549 and MCF-7 cells were cultured in 1640 medium (1640, Biological Industries, Kibbutz Beit Haemek, Israel). All medium were supplemented with 10% fetal bovine serum, 100 U/ml penicillin (North China Pharmaceutical group Co.), and 100 µg/ml streptomycin (North China Pharmaceutical group Co.). All cells were cultured at 37 °C in a humidified incubator containing 5% CO2.
(§3) Synthesized analogues used in the study were dissolved in 100% cell culture grade DMSO and the final concentration of DMSO as <0.1% for testing on cancer cell lines. Cytotoxicity assays were performed on the human gastric carcinoma cell line MGC-803, the human mammary carcinoma cell line MCF-7, the human lung carcinoma cell line A549. Cells (3500–5000/well) were seeded into 96-well plates in 100 µL of culture medium. The cells were treated in triplicate with a gradient concentration of testing compounds and incubated at 37 °C, 5% CO2 for 48 h. For all cell lines, CCK-8 assay was performed to measure cytotoxic effects. The absorbance was measured using a microplate reader (BioTek Instrument, Inc. Vermont, USA) with a test wavelength of 450 nm. The absorbance levels were corrected against untreated control absorbance values. All experiments were performed in triplicate and SPSS17.0 was used for data analysis to obtain IC50 values.
(In general: Tetrazolium dyes change colour on reduction, which living cells bring about.)

A further experiment deals with MCF-7 cells. Kind of experiment: CCK-8 proliferation assay, MCF-7. As to conditions: Homo sapiens, MCF7; 48 h, CCK-8, mean ± SD. The procedure: as §1, §2, §3
For another experiment, the system named is A549 cells. Kind of experiment: CCK-8 proliferation assay, A549. As to conditions: Homo sapiens, A549; 48 h, CCK-8, mean ± SD. The procedure: as §1, §2, §3

For the compound `COc1ccc(N2C(=O)[C@H](c3ccccc3)[C@H]2c2ccc(N=[N+]=[N-])cc2)cc1OC` (relative stereo) [Compound 12, trans-4-(4-azidophenyl)-1-(3,4-dimethoxyphenyl)-3-phenylazetidin-2-one], the IC50 with MGC-803 cells, in the experiment on MCF-7 cells and in the experiment with A549 cells was > 20 µM throughout.
As to `COc1cccc([C@H]2C(=O)N(c3ccc(OC)c(OC)c3)[C@@H]2c2ccc(N=[N+]=[N-])cc2)c1` (relative stereo) [Compound 16, trans-4-(4-azidophenyl)-1-(3,4-dimethoxyphenyl)-3-(3-methoxyphenyl)azetidin-2-one], the IC50 with MGC-803 cells, in the experiment on MCF-7 cells and in the experiment with A549 cells was > 20 µM in each case.
Turning to `COc1ccc([C@H]2C(=O)N(c3cc(OC)c(OC)c(OC)c3)[C@@H]2c2ccc(N=[N+]=[N-])cc2)cc1` (relative stereo) [Compound 17, trans-4-(4-azidophenyl)-3-(4-methoxyphenyl)-1-(3,4,5-trimethoxyphenyl)azetidin-2-one], the IC50 in the experiment on MGC-803 cells stood at 0.59 ± 0.014 µM; with MCF-7 cells it was 1.07 ± 0.024 µM; with A549 cells, 3.22 ± 0.349 µM.
As to `COc1cccc([C@H]2C(=O)N(c3cc(OC)c(OC)c(OC)c3)[C@@H]2c2ccc(N=[N+]=[N-])cc2)c1` (relative stereo) [Compound 19, trans-4-(4-azidophenyl)-3-(3-methoxyphenyl)-1-(3,4,5-trimethoxyphenyl)azetidin-2-one], the IC50 was 1.4 ± 0.133 µM in the experiment on MGC-803 cells, 2.88 ± 0.489 µM in the experiment on MCF-7 cells and 18.1 ± 2.31 µM in the experiment with A549 cells. In addition, in the experiment on MGC-803 cells (hydrogen atom (18) replaced with methoxy group (19)), the “activity loss against the growth of MGC-803 cells” value is given as “over 8 fold”.
For the compound `COc1ccc([C@H]2C(=O)N(c3ccc(OC)cc3OC)[C@@H]2c2cccc(N=[N+]=[N-])c2)cc1` (relative stereo) [Compound 21, trans-4-(3-azidophenyl)-1-(2,4-dimethoxyphenyl)-3-(4-methoxyphenyl)azetidin-2-one], the 50% inhibitory concentration (IC50) with MGC-803 cells, with MCF-7 cells and with A549 cells was > 20 µM throughout.
Consider `COc1ccc(N2C(=O)[C@H](c3ccc(F)cc3)[C@H]2c2cccc(N=[N+]=[N-])c2)c(OC)c1` (relative stereo) [Compound 22, trans-4-(3-azidophenyl)-1-(2,4-dimethoxyphenyl)-3-(4-fluorophenyl)azetidin-2-one], for which the IC50 in the experiment on MGC-803 cells, in the experiment with MCF-7 cells and in the experiment on A549 cells was > 20 µM in each case.
`COc1cccc([C@H]2C(=O)N(c3cc(OC)c(OC)c(OC)c3)[C@@H]2c2cccc(N=[N+]=[N-])c2)c1` (relative stereo) [Compound 23, trans-4-(3-azidophenyl)-3-(3-methoxyphenyl)-1-(3,4,5-trimethoxyphenyl)azetidin-2-one]: the IC50 amounted to 1.4 ± 0.127 µM in the experiment with MGC-803 cells, 2.88 ± 0.494 µM in the experiment on MCF-7 cells and 18.1 ± 1.71 µM in the experiment on A549 cells.
For `COc1cc(N2C(=O)[C@H](c3ccc(F)cc3)[C@H]2c2cccc(N=[N+]=[N-])c2)cc(OC)c1OC` (relative stereo) [Compound 24, trans-4-(3-azidophenyl)-3-(4-fluorophenyl)-1-(3,4,5-trimethoxyphenyl)azetidin-2-one] the same measures were 0.84 ± 0.63 µM, 4 ± 0.922 µM and 5.76 ± 0.887 µM.
With `COc1ccc([C@H]2C(=O)N(c3cc(OC)c(OC)c(OC)c3)[C@@H]2c2ccc(-n3cc(CSC(=S)N4CCCC4)nn3)cc2)cc1` (relative stereo) [Compound 31, (1-(4-(trans-3-(4-methoxyphenyl)-4-oxo-1-(3,4,5-trimethoxyphenyl)azetidin-2-yl)phenyl)-1H-1,2,3-triazol-4-yl)methylpyrrolidine-1-carbodithioate], the IC50 with MGC-803 cells, in the experiment with MCF-7 cells and in the experiment on A549 cells was > 20 µM each time.

The IC50 is the midpoint of a concentration-inhibition curve.
